Test results reported in patent US20120270844A1, “METHODS FOR TREATING ALZHEIMER'S DISEASE” (aFRAXis, Inc., priority 2009, published 2012).

Key:
[1] = system: C57/black 6 mice temporal cortex slices; assay: Slice electrophysiology assay (LTP, theta-burst stimulation); type: cell-based; conditions: 1 μM compound; temporal cortex slices of C57/black 6 mice
Method: coronal cortical slices (400 μm) containing temporal cortex from 2- to 3-month-old C57-Black-6 mice male littermates (from Elevage Janvier, FRANCE) are prepared and allowed to recover in oxygenated (95% O2 and 5% CO2) warm (30° C.) artificial cerebrospinal fluid (ACSF) containing 124 mM NaCl, 5 mM KCl, 1.25 mM, NaH2PO4, 1 mM MgCl2, 2 mM CaCl2, 26 mM NaHCO3, and 10 mM dextrose.
a 10 mM DMSO stock solution is prepared for each test compound and 100 μL aliquots are stored at −20° C. On the day of experiment an aliquot is thawed and vortexed for fresh solutions preparation. The final concentration of DMSO is adjusted to 0.1% all solutions, including control ACSF solution. […]
a stimulus is applied every 30 s with an intensity settled at 40% of the maximal amplitude responses. […] Potentiation of synaptic transmission is then monitored for an additional 40 minutes period. […]
following a 10 minutes control recording period (to verify baseline stability), the compound is perfused for 20 minutes. Then, LTP is triggered and the fEPSP amplitude will be recorded for an additional 40 minutes period in the presence of compound.
fEPSP amplitudes are measured as the difference between the baseline (before stimulation) and the maximal peak amplitude. The fEPSP are normalized as a percent of the mean averaged amplitude recorded over a 10 min control period, before compound application. […]

PAK1 = PAK1 (Homo sapiens, UniProt Q13153); assay: Z'Lyte fluorescence-based (FRET) PAK kinase assay, PAK1; type: biochemical; conditions: 50 μM ATP
How it was run: (§1)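 Z'Lyte FRET assay: purified PAK with 2 uM Ser/Thr20 peptide in 50 mM HEPES pH 7.5, 10 mM MgCl2, 1% DMSO, ATP at apparent Km (PAK1 50 μM, PAK2 75 μM, PAK3 100 μM, PAK4 5 μM), 1 h room temperature, then 1 h protease development. Inhibition from 445/520 nm emission ratio; IC50 values.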

PAK2 = PAK2 (Homo sapiens, UniProt Q13177); assay: Z'Lyte fluorescence-based (FRET) PAK kinase assay, PAK2; type: biochemical
How it was run: as §1

PAK3 = PAK3 (Homo sapiens, UniProt O75914); assay: Z'Lyte fluorescence-based (FRET) PAK kinase assay, PAK3; type: biochemical; conditions: 100 μM ATP
Method: (§2) A fluorescence-based assay format is used to determine IC50 values of test compounds in vitro. Purified PAK kinase is incubated with ATP, and a test compound at various concentrations and a substrate peptide containing two fluorophores. In a second step, the reaction mix is incubated with a site-specific protease that cleaves non-phosphorylated bat not phosphorylated substrate peptide, disrupting the FRET signal generated by the two fluorophores in the cleaved peptide (Z′Lyte™ Kinase assay platform; Life Technologies).
(§3) Reagents: 50 mM HEPES, pH 7.5; 0.01% BRIJ-35; 10 nM MgCl1; 1 mM EGTA, 2 uM substrate peptide Ser/Thr20 (proprietary Life Technologies Sequence), PAK enzyme [2.42-30.8 ng for PAK1, 0.29-6 ng for PAK2, 1.5-20 ng for PAK3 and 0.1-0.86 ng for PAK4; actual enzyme amounts depend on lot activity of the enzyme preparation]
Test compounds are dissolved in DMSO at various concentrations; the final DMSO concentration in the assay reaction is 1%.
(§4) ATP concentration at Kin apparent is used in the assay [50 ┌M ATP for PAK1 assay, 75 ┌M ATP for PAK2 assay, 100 μM ATP for PAK3 assay, 5 μM ATP for PAK4 assay] in a total assay volume of 10 μl. Assay reactions are incubated at room temperature for 1 hr. Following the kinase reaction, 5 μl of 1:256 dilution of development solution A (Life Technologies) is added and the reaction mix is incubated for an additional 1 hr at room temperature.
Plates are analyzed in a standard fluorescence plate reader (Tecan or equivalent) using an excitation wavelength of 400 nn and emission wavelengths of 445 nm and 520 nm.
Inhibition of kinase reaction is determined by emission ratio=emission@445 nm/emission@520 nm
as §2, with “non-phosphorylated but” for “non-phosphorylated bat”, “peptide (Z'Lyte™” for “peptide (Z′Lyte™”, “assay platform” for “assay platform;”
as §3, with “mM MgCl2;” for “nM MgCl1;”
as §4, with “at Km” for “at Kin”, “[50 μMATP” for “[50 ┌M ATP”, “75 µM” for “75 ┌M”, “[…]” for “10 μl.”, “kinase reaction.” for “kinase reaction,”, “[…]” for “5 μl”
Plates are analyzed in a standard fluorescence plate reader (Teem or equivalent) using an excitation wavelength of 400 nm and emission wavelengths of 445 nm and 520 nm.

PAK4 = PAK4 (Homo sapiens, UniProt O96013); assay: Z'Lyte fluorescence-based (FRET) PAK kinase assay, PAK4; type: biochemical; conditions: 5 μM ATP
How it was run: as §1

[2] = Table 1 of Example 100, 75 μM ATP
[3] = Table 1 of Example 29 (own compound numbering)

Chain of PAK4 (O96013 whole entry): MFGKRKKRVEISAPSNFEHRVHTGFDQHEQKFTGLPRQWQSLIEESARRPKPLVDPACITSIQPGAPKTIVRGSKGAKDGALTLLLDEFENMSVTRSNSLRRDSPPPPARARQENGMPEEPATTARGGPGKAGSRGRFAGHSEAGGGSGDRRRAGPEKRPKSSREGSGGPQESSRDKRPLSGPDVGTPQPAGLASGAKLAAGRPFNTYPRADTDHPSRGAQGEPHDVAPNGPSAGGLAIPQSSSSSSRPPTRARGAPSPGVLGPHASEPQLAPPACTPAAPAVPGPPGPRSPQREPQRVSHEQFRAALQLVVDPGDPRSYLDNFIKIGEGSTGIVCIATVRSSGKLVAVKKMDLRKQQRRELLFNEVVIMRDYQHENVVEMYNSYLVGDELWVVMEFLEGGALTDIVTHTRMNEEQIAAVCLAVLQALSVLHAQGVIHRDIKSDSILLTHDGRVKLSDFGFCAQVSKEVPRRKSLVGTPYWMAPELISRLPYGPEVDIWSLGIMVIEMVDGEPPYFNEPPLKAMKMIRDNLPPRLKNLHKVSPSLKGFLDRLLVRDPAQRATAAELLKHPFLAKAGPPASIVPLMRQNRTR
Chain of PAK3 (O75914 whole entry): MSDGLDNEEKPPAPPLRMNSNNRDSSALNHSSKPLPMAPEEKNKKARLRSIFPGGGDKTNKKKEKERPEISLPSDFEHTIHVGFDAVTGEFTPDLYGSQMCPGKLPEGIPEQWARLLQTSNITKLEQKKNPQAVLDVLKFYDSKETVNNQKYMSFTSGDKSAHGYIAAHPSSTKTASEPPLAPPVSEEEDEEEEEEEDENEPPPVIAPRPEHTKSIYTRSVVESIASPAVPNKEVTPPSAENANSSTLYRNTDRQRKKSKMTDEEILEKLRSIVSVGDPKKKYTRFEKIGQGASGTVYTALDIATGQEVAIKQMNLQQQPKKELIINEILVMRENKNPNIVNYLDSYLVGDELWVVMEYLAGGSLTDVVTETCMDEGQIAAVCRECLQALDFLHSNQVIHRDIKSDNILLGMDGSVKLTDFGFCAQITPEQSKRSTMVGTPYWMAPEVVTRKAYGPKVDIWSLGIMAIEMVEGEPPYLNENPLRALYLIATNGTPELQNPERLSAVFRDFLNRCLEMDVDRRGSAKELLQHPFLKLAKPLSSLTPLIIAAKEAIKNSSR
Chain of PAK1 (Q13153 whole entry): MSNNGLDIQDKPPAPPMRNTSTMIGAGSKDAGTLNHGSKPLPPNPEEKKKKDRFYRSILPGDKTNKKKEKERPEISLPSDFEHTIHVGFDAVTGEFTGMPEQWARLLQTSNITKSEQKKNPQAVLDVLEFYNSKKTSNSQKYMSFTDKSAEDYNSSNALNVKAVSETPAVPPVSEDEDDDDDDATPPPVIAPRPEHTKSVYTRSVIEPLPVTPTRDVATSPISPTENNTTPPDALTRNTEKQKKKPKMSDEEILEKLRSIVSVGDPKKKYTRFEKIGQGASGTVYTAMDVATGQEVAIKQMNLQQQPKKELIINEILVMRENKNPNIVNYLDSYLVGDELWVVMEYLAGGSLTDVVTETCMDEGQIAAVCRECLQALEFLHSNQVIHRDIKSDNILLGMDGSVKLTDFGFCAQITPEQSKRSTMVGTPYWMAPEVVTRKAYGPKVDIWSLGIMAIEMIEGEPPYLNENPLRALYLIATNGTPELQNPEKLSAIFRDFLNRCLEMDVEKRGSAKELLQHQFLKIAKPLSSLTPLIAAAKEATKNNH
Chain of PAK2 (Q13177 whole entry): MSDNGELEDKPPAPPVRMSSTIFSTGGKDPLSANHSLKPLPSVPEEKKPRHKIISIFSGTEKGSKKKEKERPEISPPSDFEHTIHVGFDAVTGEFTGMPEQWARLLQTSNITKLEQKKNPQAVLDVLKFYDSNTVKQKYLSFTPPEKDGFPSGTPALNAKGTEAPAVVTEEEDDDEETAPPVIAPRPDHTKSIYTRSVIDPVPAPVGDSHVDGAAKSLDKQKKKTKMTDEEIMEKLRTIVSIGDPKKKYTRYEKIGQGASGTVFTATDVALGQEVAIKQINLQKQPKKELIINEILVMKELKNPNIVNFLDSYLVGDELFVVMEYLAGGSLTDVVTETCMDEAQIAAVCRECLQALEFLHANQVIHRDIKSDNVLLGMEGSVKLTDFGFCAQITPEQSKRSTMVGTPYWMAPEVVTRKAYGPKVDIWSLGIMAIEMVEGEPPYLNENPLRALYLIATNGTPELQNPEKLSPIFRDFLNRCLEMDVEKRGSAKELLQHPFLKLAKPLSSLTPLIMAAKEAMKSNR

SMILES | IC50 (PAK1; Table 1 of Example 100) | IC50 (PAK2; [2]) | IC50 (PAK3; Table 1 of Example 100) | IC50 (PAK4; Table 1 of Example 100) | also measured
CN1CCN(c2ccc(Nc3ncc4ccc(=O)n(C5CCCC5)c4n3)cc2)CC1 [Compound G, 8-cyclopentyl-2-(4-(4-methylpiperazin-1-yl)phenylamino)pyrido[2,3-d]pyrimidin-7(8H)-one] | – | – | – | – | LTP compared to the baseline in a theta-burst stimulation protocol in the cortex [1]: increased LTP
COc1cc(Nc2nccc(-c3ccc(NCCN)nc3)n2)cc(OC)c1OC [Compound A, N^1-(5-(2-(3,4,5-trimethoxyphenylamino)pyrimidin-4-yl)pyridin-2-yl)ethane-1,2-diamine] | – | – | – | – | LTP compared to the baseline in a theta-burst stimulation protocol in the cortex [1]: increased LTP
O=c1ccc2cnc(Nc3ccc(N4CCNCC4)c(F)c3)nc2n1C1CCc2ccccc2C1 (stereo not shown) [Compound 22] | < 1000 nM | < 1000 nM | < 1000 nM | < 1000 nM | –
CN1CCN(c2ccc(Nc3ncc4ccc(=O)n(C5CCC(C)(C)c6ccccc65)c4n3)cc2)CC1 (stereo not shown) [Compound 20] | < 1000 nM | < 1000 nM | 1000 to 10000 nM | 1000 to 10000 nM | –
CN1CCN(c2ccc(Nc3ncc4ccc(=O)n(CC(=O)c5ccccc5)c4n3)cc2)CC1 [Compound 50] | 1000 to 10000 nM | 1000 to 10000 nM | 1000 to 10000 nM | 1000 to 10000 nM | –
CN1CCN(c2ccc(Nc3ncc4ccc(=O)n(C5CCc6ccccc6C5)c4n3)cc2)CC1 (stereo not shown) [Compound 18] | < 1000 nM | < 1000 nM | < 1000 nM | < 1000 nM | –
O=c1c(-c2ccccc2)cc2cnc(Nc3ccc(NC4CCCNC4)cc3)nc2n1Cc1ccccc1C(F)(F)F (stereo not shown) [Compound 167] | – | – | – | – | IC50 (PAK1; [3]): < 1000 nM; IC50 (PAK2; Table 1 of Example 29 (own compound numbering), 75 µM ATP): < 1000 nM; IC50 (PAK3; [3]): < 1000 nM; IC50 (PAK4; [3]): 1000 to 10000 nM
